Measured values taken from US20060009493A1, “Indolinone hydrazides as c-Met inhibitors” (Sugen, Inc., priority 2003, published 2006).
Values joined by “and” are separate entries in the source; they are usually repeats but may differ in a detail not shown here. Identical values can stand only once.

Target: T1, GST fusion protein containing the Met kinase domain (Homo sapiens, UniProt P08581)
T1 construct: Purified GST fusion protein containing the Met kinase domain, Sugen, Inc
Experiment: MET Transphosphorylation Assay (ELISA, poly(Glu,Tyr) 4:1 substrate)
Format: biochemical
Conditions: met transphosphorylation of poly(glutamic acid:tyrosine 4:1) substrate; two values in a cell separated by '/'
Outline: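 Poly(Glu-Tyr)-coated wells received the GST-Met kinase domain (10 ng/well) with compound in DMSO for 15 minutes. The reaction was started with ATP/MnCl2 in HEPES pH 7.5 buffer with vanadate, run 5 minutes, and stopped with EDTA. Phosphotyrosine was detected by anti-pTyr antibody, HRP secondary and ABTS/H2O2.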

T1 sequence (P08581 1078-1345 limits assumed): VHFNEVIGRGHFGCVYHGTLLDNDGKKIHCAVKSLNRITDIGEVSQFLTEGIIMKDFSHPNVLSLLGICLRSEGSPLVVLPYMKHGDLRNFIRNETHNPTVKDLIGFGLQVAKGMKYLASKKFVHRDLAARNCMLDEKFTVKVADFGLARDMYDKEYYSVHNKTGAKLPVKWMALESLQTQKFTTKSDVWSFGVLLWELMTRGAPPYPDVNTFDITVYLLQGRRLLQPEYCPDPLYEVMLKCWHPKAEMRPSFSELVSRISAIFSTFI

SMILES | IC50
O=C(Cc1ccc(O)cc1)N/N=C1\C(=O)Nc2cccc(Cl)c21 [II-39, (4-Hydroxy-phenyl)-acetic acid [(3Z)-4-chloro-2-oxo-1,2-dihydro-indol-3-ylidene]-hydrazide] | 8 nM
Cc1cc(Cl)cc2c1NC(=O)/C2=N\NC(=O)Cc1ccc(O)cc1 [II-63, (4-Hydroxy-phenyl)-acetic acid [(3Z)-5-chloro-7-methyl-2-oxo-1,2-dihydro-indol-3-ylidene]hydrazide] | < 9.1 nM
O=C(Cc1cc[n+]([O-])cc1)N/N=C1\C(=O)Nc2ccccc21 [II-37, (1-Oxy-pyridin-4-yl)-acetic acid [(3Z)-2-oxo-1,2-dihydro-indol-3-ylidene]-hydrazide] | 10800 nM
O=C(CCc1ccc(O)cc1)N/N=C1\C(=O)Nc2ccccc21 [II-24, 3-(4-Hydroxy-phenyl)-propionic acid [(3E)-2-oxo-1,2-dihydro-indol-3-ylidene]-hydrazide] | > 20000 nM
COc1cc(Cl)c2c(c1Cl)/C(=N/NC(=O)C(C)c1ccc(O)cc1)C(=O)N2 (centres unmarked) [II-113, 2-(4-Hydroxy-phenyl)-propionic acid [(3Z)4,7-dichloro-5-methoxy-2-oxo-1,2-dihydro-indol-3-ylidene)-hydrazide] | 47 nM
O=C(Cc1ccc(O)cc1)N/N=C1\C(=O)Nc2c(Cl)cc(Cl)cc21 [II-61, (4-Hydroxy-phenyl)-acetic acid [(3Z)-5,7-dichloro-2-oxo-1,2-dihydro-indol-3-ylidene)-hydrazide] | 88 nM
CC(C(=O)N/N=C1\C(=O)Nc2ccc(O)c(Cl)c21)c1ccc(F)cc1 (centres unmarked) [II-105, 2-(4-Fluoro-phenyl)-propionic acid [(3Z)-4-chloro-5-hydroxy-2-oxo-1,2-dihydro-indol-3-ylidene)-hydrazide] | 420 nM
COc1ccc(CC(=O)N/N=C2\C(=O)Nc3ccccc32)cc1OC [II-5, (3,4-Dimethoxy-phenyl)-acetic acid [(3Z)-2-oxo-1,2-dihydro-indol-3-ylidene]-hydrazide] | > 20000 nM
O=C1Nc2ccccc2/C1=N/NC(=O)C1Cc2ccccc2C1 [Example I-59, Indan-2-carboxylic acid [(3Z)-2-oxo-1,2-dihydro-indol-3-ylidene)-hydrazide] | > 20000 nM
Cc1cn(CC(=O)N/N=C2\C(=O)Nc3ccccc32)c(=O)[nH]c1=O [II-73, (5-Methyl-2,4-dioxo-3,4-dihydro-2H-pyrimidin-1-yl)-acetic acid [(3Z)-2-oxo-1,2-dihydro-indol-3-ylidene]-hydrazide] | > 20000 nM
COc1cc(Cl)c2c(c1Cl)/C(=N/NC(=O)Cc1ccc(O)cc1)C(=O)N2 [II-95, (4-Hydroxy-phenyl)-acetic acid [(3Z)-4,7-dichloro-5-methoxy-2-oxo-1,2-dihydro-indol-3-ylidene]-hydrazide] | 32 nM
CCC(C(=O)N/N=C1\C(=O)Nc2c(Cl)ccc(Cl)c21)c1ccc(OC)cc1 (centres unmarked) [II-79, 2-(4-Methoxy-phenyl)-butyric acid [(3Z)-4,7-dichloro-2-oxo-1,2-dihydro-indol-3-ylidene)-hydrazide] | 150 nM
Cc1ccc(C)c2c1NC(=O)/C2=N\NC(=O)C(C)c1ccc(O)cc1 (centres unmarked) [II-57, 2-(4-Hydroxy-phenyl)-propionic acid [(3Z)-4,7-dimethyl-2-oxo-1,2-dihydro-indol-3-ylidene]-hydrazide] | 16 nM
O=C(Cc1ccc(O)cc1)N/N=C1\C(=O)Nc2cc(Cl)ccc21 [II-51, (4-Hydroxy-phenyl)-acetic acid [(3Z)-6-chloro-2-oxo-1,2-dihydro-indol-3-ylidene]-hydrazide] | 17 nM
O=C1Nc2c(Cl)ccc(Cl)c2/C1=N/NC(=O)C1Cc2ccccc2C1 [Example I-57] | > 20000 nM
O=C(Cc1ccc(OCCN2CCCC2)cc1)N/N=C1\C(=O)Nc2ccccc21 [Example I-1] | 10400 nM
O=C(Cc1ccccc1)N/N=C1\C(=O)Nc2c(Cl)ccc(Cl)c21 [II-75, Phenyl-acetic acid [(3Z)-4,7-dichloro-2-oxo-1,2-dihydro-indol-3-ylidene]-hydrazide] | 90 nM
O=C(Cc1ccc(O)cc1)N/N=C1\C(=O)Nc2ccc(Cl)c(Cl)c21 [II-33, (4-Hydroxy-phenyl)-acetic acid [(3Z)-4,5-dichloro-2-oxo-1,2-dihydro-indol-3-ylidene]-hydrazide] | 15 nM
CN1CCN(C(=O)c2ccc3c(c2)/C(=N/NC(=O)Cc2ccc(O)cc2)C(=O)N3)CC1 [Example I-12, (4-Hydroxy-phenyl)-acetic acid [(3Z)-5-(4-methyl-piperazine-1-carbonyl)-2-oxo-1,2-dihydro-indol-3-ylidene]-hydrazide] | 78 nM

SMILES | IC50
CC(C(=O)N/N=C1\C(=O)Nc2ccc(C(=O)N3CCC(NC4CC4)CC3)c(Cl)c21)c1ccc(F)cc1 (centres unmarked) [Example I-30, 2-(4-Fluoro-phenyl)-propionic acid [(3Z)-4-chloro-5-(4-cyclopropylamino-piperidine-1-carbonyl)-2-oxo-1,2-dihydro-indol-3-ylidene]-hydrazide] | 130 nM
CC(C)C(C(=O)N/N=C1\C(=O)Nc2ccccc21)c1ccc(O)cc1 (centres unmarked) [II-68, 2-(4-Hydroxy-phenyl)-3-methyl-butyric acid [(3Z)-2-oxo-1,2-dihydro-indol-3-ylidene)-hydrazide] | 1450 nM
Cn1cc(CC(=O)N/N=C2\C(=O)Nc3ccc(C(=O)N4CCC[C@@H]4CN4CCCC4)c(Cl)c32)ccc1=O [Example I-36, (1-Methyl-6-oxo-1,6-dihydro-pyridin-3-yl)-acetic acid [(3Z)-4-chloro-2-oxo-5-[(2R)-2-pyrrolidin-1-ylmethyl-pyrrolidine-1-carbonyl]-1,2-dihydro-indol-3-ylidene]-hydrazide] | 4150 nM
O=C(Cc1ccccc1Cl)N/N=C1\C(=O)Nc2ccccc21 [II-13, (2-Chloro-phenyl)-acetic acid [(3Z)-2-oxo-1,2-dihydro-indol-3-ylidene]-hydrazide] | > 20000 nM
Cn1cc(CC(=O)N/N=C2\C(=O)Nc3cc(Cl)c(C(=O)NCCN4CCOCC4)cc32)ccc1=O [Example I-46, (3Z)-6-Chloro-3-{[2-(1-methyl-6-oxo-1,6-dihydro-pyridin-3-yl)-acetyl]-hydrazono}-2-oxo-2,3-dihydro-1H-indole-5-carboxylic acid (2-morpholin-4-yl-ethyl)-amide] | 5840 nM
CC(C(=O)N/N=C1\C(=O)Nc2ccc(NC(=O)CN3CCCC3)cc21)c1ccc(F)cc1 (centres unmarked) [Example I-55, N-((3Z)-3-{[2-(4-Fluoro-phenyl)-propionyl]-hydrazono}-2-oxo-2,3-dihydro-1H-indol-5-yl)-2-pyrrolidin-1-yl-acetamide] | 6160 nM
CC(C(=O)N/N=C1\C(=O)Nc2ccc(C(=O)O)c(Cl)c21)c1ccc(F)cc1 (centres unmarked) [Example I-29, (3Z)-4-Chloro-3-{[2-(4-fluoro-phenyl)-propionyl]-hydrazono}-2-oxo-2,3-dihydro-1H-indole-5-carboxylic acid] | 230 nM
CS(=O)(=O)c1ccc2c(c1)/C(=N/NC(=O)Cc1ccc(O)cc1)C(=O)N2 [Example I-9, (4-Hydroxy-phenyl)-acetic acid [(3Z)-5-methanesulfonyl-2-oxo-1,2-dihydro-indol-3-ylidene]-hydrazide] | < 9.1 nM and 22 nM
O=C(Cc1ccc(O)cc1)N/N=C1\C(=O)Nc2cccc(C3CCNCC3)c21 [Example I-18, (4-Hydroxy-phenyl)-acetic acid [(3Z)-2-oxo-4-piperidin-4-yl-1,2-dihydro-indol-3-ylidene]-hydrazide] | > 20000 nM
O=C(Cc1ccc(O)c(F)c1)N/N=C1\C(=O)Nc2ccccc21 [II-43, (3-Fluoro-4-hydroxy-phenyl)-acetic acid [(3Z)-2-oxo-1,2-dihydro-indol-3-ylidene]-hydrazide] | 54 nM
O=C(Cc1ccc2c(c1)OCO2)N/N=C1\C(=O)Nc2ccccc21 [Example I-23, Benzo[1,3]dioxol-5-yl-acetic acid [(3Z)-2-oxo-1,2-dihydro-indol-3-ylidene]-hydrazide] | 150 nM
O=C(Cc1ccc(O)c([N+](=O)[O-])c1)N/N=C1\C(=O)Nc2ccccc21 [II-46, (4-Hydroxy-3-nitro-phenyl)-acetic acid [(3Z)-2-oxo-1,2-dihydro-indol-3-ylidene]-hydrazide] | 610 nM
COc1ccc(CC(=O)N/N=C2\C(=O)Nc3ccc(Br)cc32)cc1OC [II-16, (3,4-Dimethoxy-phenyl)-acetic acid [(3Z)-5-bromo-2-oxo-1,2-dihydro-indol-3-ylidene)-hydrazide] | 18500 nM
Cc1c(Br)ccc2c1/C(=N/NC(=O)Cc1ccc(O)cc1)C(=O)N2 [II-35, (4-Hydroxy-phenyl)-acetic acid [(3Z)-5-bromo-4-methyl-2-oxo-1,2-dihydro-indol-3-ylidene)-hydrazide] | 16 nM
Cc1cc(CCN2CCCC2)c(C)c2c1NC(=O)/C2=N\NC(=O)C(C)c1ccc(F)cc1 (centres unmarked) [Example I-62, 2-(4-Fluoro-phenyl)-propionic acid [(3Z)-4,7-dimethyl-2-oxo-5-(2-pyrrolidin-1-yl-ethyl)-1,2-dihydro-indol-3-ylidene]-hydrazide] | 980 nM
O=C1Nc2ccccc2/C1=N/NC(=O)C(F)(F)c1ccc(F)cc1 [Example I-32, Difluoro-(4-fluoro-phenyl)-acetic acid [(3Z)-2-oxo-1,2-dihydro-indol-3-ylidene]-hydrazide] | > 20000 nM
Cc1ccc(CC(=O)N/N=C2\C(=O)Nc3ccccc32)cc1 [II-11, p-Tolyl-acetic acid [(3Z)-2-oxo-1,2-dihydro-indol-3-ylidene]-hydrazide] | > 20000 nM
COc1ccc(CC(=O)N/N=C2\C(=O)Nc3c(Cl)ccc(Cl)c32)cc1C [II-70, (4-Methoxy-3-methyl-phenyl)-acetic acid [(3Z)-4,7-dichloro-2-oxo-1,2-dihydro-indol-3-ylidene]-hydrazide] | > 20000 nM
COc1ccc(CC(=O)N/N=C2\C(=O)Nc3c(C)ccc(C)c32)cc1C#N [II-107, (3-Cyano-4-methoxy-phenyl)-acetic acid [(3Z)-4,7-dimethyl-2-oxo-1,2-dihydro-indol-3-ylidene]-hydrazide] | > 20000 nM
